Measured values: US20170136030A1, “TREATMENT OF MALARIA USING INHIBITORS OF THE ISPD ENZYME IN THE NON-MEVALONATE PATHWAY” (Washington University, priority 2014, published 2017)

Columns and labels:
[1] = system: cultured Plasmodium falciparum parasite strain 3D7; assay: Antimalarial efficacy, parasite growth inhibition by Sybr Green staining; format: cell-based; settings: P. falciparum strain 3D7
Experimental: Each compound was tested for the ability to inhibit growth of a standard cultured Plasmodium falciparum parasite strain 3D7. Parasite growth was monitored by staining with the DNA fluorophore Sybr Green, as previously described for the antimalarial fosmidomycin in Zhang et al., Biochemistry, (2011) 50(17), 3570-3577. Each compound was evaluated for antimalarial activity over several concentrations. Nonlinear regression analysis was used to determine the concentration of half-maximal antimalarial efficacy (EC50) for each compound.

[2] = biological target: purified recombinant Plasmodium falciparum methylerythritol cytidyltransferase (PfIspD) enzyme (Plasmodium falciparum, UniProt Q8I273); assay: biochemical; settings: nonlinear regression
Experimental: Compounds listed in Table 1 were tested for activity against purified recombinant Plasmodium falciparum methylerythritol cytidyltransferase (PfIspD) enzyme. […] Each compound was evaluated for enzymatic inhibition over several concentrations. Nonlinear regression analysis (GraphPad Prism) was used to determine the half-maximal inhibitory concentration (IC50) for each compound.

MEP pathway = assay: Metabolic profiling of inhibitor-treated malaria parasites (LC-MS/MS); format: cell-based; settings: parasite lines treated with compound, FIG. 3
Excerpt: A quantitative liquid chromatography-mass spectrometry method (LC-MS/MS) was developed to determine the cellular levels of metabolites in the MEP pathway. This method allows determination of whether the MEP pathway has been inhibited in malaria parasites treated with MEP pathway inhibitors of the present invention. This method has been previously used to validate the cellular metabolic effects of the known MEP pathway inhibitor fosmidomycin (Zhang et al., Biochemistry 2011).

Sequence of purified recombinant Plasmodium falciparum methylerythritol cytidyltransferase (PfIspD) enzyme (Q8I273 entry or part of it): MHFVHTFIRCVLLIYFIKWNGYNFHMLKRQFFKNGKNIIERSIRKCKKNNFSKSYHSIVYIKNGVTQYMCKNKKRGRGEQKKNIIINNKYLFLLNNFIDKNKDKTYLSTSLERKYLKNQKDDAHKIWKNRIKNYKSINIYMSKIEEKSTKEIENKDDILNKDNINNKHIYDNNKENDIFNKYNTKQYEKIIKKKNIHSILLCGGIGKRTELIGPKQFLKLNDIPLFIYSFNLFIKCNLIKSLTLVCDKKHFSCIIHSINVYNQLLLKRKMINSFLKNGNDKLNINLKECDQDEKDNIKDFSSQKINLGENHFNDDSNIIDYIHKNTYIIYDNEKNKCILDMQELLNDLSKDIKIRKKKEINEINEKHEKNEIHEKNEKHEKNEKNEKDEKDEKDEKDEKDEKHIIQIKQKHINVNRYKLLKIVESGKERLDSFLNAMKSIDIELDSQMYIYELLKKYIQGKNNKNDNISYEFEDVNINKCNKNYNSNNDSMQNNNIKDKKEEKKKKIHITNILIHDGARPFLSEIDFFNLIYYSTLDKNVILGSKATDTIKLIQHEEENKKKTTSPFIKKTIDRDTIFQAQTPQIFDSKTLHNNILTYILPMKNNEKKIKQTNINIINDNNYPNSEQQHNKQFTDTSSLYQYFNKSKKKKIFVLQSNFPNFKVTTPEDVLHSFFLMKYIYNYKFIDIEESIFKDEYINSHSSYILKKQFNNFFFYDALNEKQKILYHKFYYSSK

Row | Compound | IC50 [2] [nM] | EC50 [1] [nM] | cellular level of downstream MEP pathway metabolite CDP-ME (MEP pathway) | cellular level of downstream MEP pathway metabolite cMEPP (MEP pathway)
1 | O=c1c2ccccc2sn1-c1cc(S(=O)(=O)N2CCCOCC2)ccc1O [Compound 40, 2-(5-((1,4-oxazepan-4-yl)sulfonyl)-2-hydroxyphenyl)benzo[d]isothiazol-3(2H)-one] | 1950 | 14600 | – | –
2 | COc1ccc(S(=O)(=O)N2CCNCC2)cc1-n1sc2ccccc2c1=O [Compound 36, 2-(2-methoxy-5-(piperazin-1-ylsulfonyl)phenyl)benzo[d]isothiazol-3(2H)-one] | 1150 | 970 | – | –
3 | COc1ccc(S(=O)(=O)N2CCCCC2)cc1-n1sc2ccccc2c1=O [Compound 25, 2-(2-methoxy-5-(piperidin-1-ylsulfonyl)phenyl)benzo[d]isothiazol-3(2H)-one] | 809 | 14300 | – | –
4 | O=c1c2cccnc2sn1Cc1ccccc1 [Compound 52, 2-benzylisothiazolo[5,4-b]pyridin-3(2H)-one] | 1520 | – | – | –
5 | COc1ccc(S(=O)(=O)N2CCC(F)CC2)cc1-n1sc2ccccc2c1=O [Compound 26, 2-(5-((4-fluoropiperidin-1-yl)sulfonyl)-2-methoxyphenyl)benzo[d]isothiazol-3(2H)-one] | 866 | 6110 | – | –
6 | COc1ccc(S(=O)(=O)N2CCN(C)CC2)cc1-n1sc2ccccc2c1=O [Compound 28, 2-(2-methoxy-5-((4-methylpiperazin-1-yl)sulfonyl)phenyl)benzo[d]isothiazol-3(2H)-one] | 1950 | 2470 | – | –
7 | O=c1c2ccccc2sn1-c1cc(S(=O)(=O)N2CCOCC2)ccc1N1CCCC1 [Compound 2, 1,2-benzisothiazol-3(2H)-one,2-[-5-(4-morpholinylsulfonyl)-2-(1-pyrrolidinyl)phenyl]] | 7260 | 17100 | – | –
8 | COc1ccc(S(=O)(=O)N2CCOCC2)cc1-n1sc2ccccc2c1=O [Compound 24, 2-(2-methoxy-5-(morpholinosulfonyl)phenyl)benzo[d]isothiazol-3(2H)-one] | 1080 | 8610 | – | –
9 | COc1ccc(-c2cccc(-n3sc4ccccc4c3=O)c2)cc1 [Compound 41, 2-(4′-methoxy-[1,1′biphenyl]-3-yl)benzo[d]isothiazol-3(2H)-one] | – | 770 | significantly decreased | significantly decreased
10 | Cc1nnsc1C(=O)Nc1cc(S(=O)(=O)N2CCCCC2)ccc1O [Compound 19, N-[2-hydroxy-5-(piperidine-1-sulfonyl)phenyl]-4-methyl-1,2,3-thiadiazole-5-carboxamide] | 58900 | > 200000 | – | –
11 | COc1ccc(S(=O)(=O)N2CCCOCC2)cc1-n1sc2ccccc2c1=O [Compound 27, 2-(5-((1,4-oxazepan-4-yl)sulfonyl)-2-methoxyphenyl)benzo[d]isothiazol-3(2H)-one] | 542 | 9100 | – | –
12 | O=c1[nH]sc2ncccc12 [Compound 50, Isothiazolo[5,4-b]pyridin-3(2H)-one] | 56200 | 160000 | – | –
13 | CSc1ccccc1C(=O)Nc1cccc(S(=O)(=O)N2CCOCC2)c1 [Compound 11, 2-(methylthio)-(N-((3-morpholinosulfonyl)phenyl)benzamide)] | > 200000 | 82600 | – | –

Continued, in another order:

Row | IC50 [2] [nM] | Compound | EC50 [1] [nM] | cellular level of downstream MEP pathway metabolite CDP-ME (MEP pathway) | cellular level of downstream MEP pathway metabolite cMEPP (MEP pathway)
14 | 170 | O=c1c2ccccc2sn1-c1ccccn1 [Compound 47, 2-(pyridin-2-yl)benzo[d]isothiazol-2(3H)-one] | 70000 | – | –
15 | 5390 | O=c1c2ccccc2sn1-c1cc(S(=O)(=O)N2CCCCC2)ccc1O [Compound 39, 2-(2-hydroxy-5-(piperidin-1-ylsulfonyl)phenyl)benzo[d]isothiazol-3(2H)-one] | 9210 | – | –
16 | 656 | O=c1c2ccccc2sn1-c1cccc(S(=O)(=O)N2CCOCC2)c1 [Compound 10, 2-(3-morpholinosulfonyl)phenylbenzo[d]isothiazol-3(2H)-one] | 7400 | – | –
17 | 1340 | COc1ccc(Cn2sc3ccccc3c2=O)cc1 [Compound 51, 2-(4-methoxybenzyl)benzo[d]isothiazol-2(3H)-one] | 67600 | – | –
18 | 160 | O=c1c2ccccc2sn1-c1cccc(-c2ccc(Cl)cc2)c1 [Compound 43, 2-(4′-chloro-[1,1′biphenyl]-3-yl)benzo[d]isothiazol-3(2H)-one] | 610 | – | –
19 | 480 | O=C(O)c1cccc(-n2sc3ccccc3c2=O)c1 [Compound 46, 3-(3-oxobenzo[d]isothiazol-2(3H)-yl)benzoic acid] | > 200000 | – | –
20 | 290 | O=c1c2ccccc2sn1-c1cccc(-c2ccsc2)c1 [Compound 42, 2-(3-(thiophen-3-yl)phenyl)benzo[d]isothiazol-3(2H)-one] | 2880 | – | –
21 | 310 | O=c1c2ccccc2sn1-c1cccc(-c2ccc(C(F)(F)F)cc2)c1 [Compound 44, 2-(4′-(trifluoromethyl)-[1,1′biphenyl]-3-yl)benzo[d]isothiazol-3(2H)-one] | 450 | – | –
22 | 620 | O=c1c2ccccc2sn1Cc1ccc(Cl)cc1 [Compound 49, 2-(4-chlorobenzyl)benzo[d]isothiazol-2(3H)-one] | 17900 | – | –
23 | 13200 | O=c1c2ccccc2sn1-c1cc(S(=O)(=O)N2CCC(F)CC2)ccc1O [Compound 38, 2-(5-((4-fluoropiperidin-1-yl)sulfonyl)-2-hydroxyphenyl)benzo[d]isothiazol-3(2H)-one] | 10100 | – | –
24 | 710 | O=c1c2ccccc2sn1-c1cc(S(=O)(=O)N2CCOCC2)ccc1O [Compound 37, 2-(2-hydroxy-5-(morpholinosulfonyl)phenyl)benzo[d]isothiazol-3(2H)-one] | 7590 | – | –
25 | 2430 | O=c1c2ccccc2sn1Cc1ccccc1 [Compound 48, 2-benzylbenzo[d]isothiazol-2(3H)-one] | – | – | –
26 | 150 | COC(=O)c1cccc(-n2sc3ccccc3c2=O)c1 [Compound 45, Methyl-3-(3-oxobenzo[d]isothiazol-2(3H)-yl)benzoate] | 11700 | – | –
27 | 30900 | O=c1c2ccccc2sn1-c1ccc(S(=O)(=O)N2CCOCC2)cc1 [Compound 4, 1,2-benzisothiazol-3(2H)-one,2-[4-(4-morpholinylsulfonyl)phenyl]] | 20800 | – | –
28 | 506 | Cc1ccc(-n2sc3ccccc3c2=O)cc1S(=O)(=O)N1CCOCC1 [Compound 3, 1,2-benzisothiazol-3(2H)-one,2-[4-methyl-3-(4-morpholinylsulfonyl)phenyl]] | 4960 | – | –
